Data: ChEMBL document CHEMBL1144377, “Oximinoarylsulfonamides as potent HIV protease inhibitors” (Bioorg Med Chem Lett, 2005)

Assays:
[1] = test system: Human immunodeficiency virus 1; experiment: Inhibitory concentration against resistant (A17) human immunodeficiency virus; format: functional, organism-based
[2] = test system: Human immunodeficiency virus 1; experiment: Inhibitory concentration against wild type human immunodeficiency virus; format: functional, organism-based

Row | Compound | IC50 [1] | IC50 [2]
1 | CC(C)CN(C[C@@H](O)[C@H](Cc1ccccc1)NC(=O)O[C@H]1CCOC1)S(=O)(=O)c1ccc(N)cc1 | 3720 nM | 109 nM
2 | Cc1nc(CN2CCN([C@H](C(=O)N[C@@H](Cc3ccccc3)[C@H](O)CN(CC(C)C)S(=O)(=O)c3ccc(CO)cc3)C(C)C)C2=O)cs1 | 99 nM | 61 nM
3 | CO/N=C\c1ccc(S(=O)(=O)N(CC(C)C)C[C@@H](O)[C@H](Cc2ccccc2)NC(=O)[C@H](C(C)C)N2CCN(Cc3csc(C)n3)C2=O)cc1 | 3010 nM | 653 nM
4 | Cc1nc(CN2CCN([C@H](C(=O)N[C@@H](Cc3ccccc3)[C@H](O)CN(CC(C)C)S(=O)(=O)c3ccc(C(=N)NO)cc3)C(C)C)C2=O)cs1 | 523 nM | 143 nM
5 | Cc1nc(CN2CCN([C@H](C(=O)N[C@@H](Cc3ccccc3)[C@H](O)CN(CC(C)C)S(=O)(=O)c3ccc(/C=N\O)cc3)C(C)C)C2=O)cs1 | 31 nM | 5 nM
6 | Cc1nc(CN2CCN([C@H](C(=O)N[C@@H](Cc3ccccc3)[C@H](O)CN(CC(C)C)S(=O)(=O)c3ccc(C(N)=O)cc3)C(C)C)C2=O)cs1 | 944 nM | 254 nM
7 | Cc1nc(CN2CCN([C@H](C(=O)N[C@@H](Cc3ccccc3)[C@H](O)CN(CC(C)C)S(=O)(=O)c3cccc(/C=N\O)c3)C(C)C)C2=O)cs1 | 222 nM | 16 nM
8 | Cc1nc(CN2CCN([C@H](C(=O)N[C@@H](Cc3ccccc3)[C@H](O)CN(CC(C)C)S(=O)(=O)c3ccc(C#N)cc3)C(C)C)C2=O)cs1 | 1170 nM | 148 nM
9 | Cc1nc(CN2CCN([C@H](C(=O)N[C@@H](Cc3ccccc3)[C@H](O)CN(CC(C)C)S(=O)(=O)c3cccc(CO)c3)C(C)C)C2=O)cs1 | 910 nM | 45 nM
10 | Cc1nc(CN2CCN([C@H](C(=O)N[C@@H](Cc3ccccc3)[C@H](O)CN(CC(C)C)S(=O)(=O)c3ccc(N)cc3)C(C)C)C2=O)cs1 | 311 nM | 31 nM
11 | Cc1nc(CN2CCN([C@H](C(=O)N[C@@H](Cc3ccccc3)[C@H](O)CN(CC(C)C)S(=O)(=O)c3ccc(NS(C)(=O)=O)cc3)C(C)C)C2=O)cs1 | 10000 nM | 1190 nM
12 | CC(=O)Nc1ccc(S(=O)(=O)N(CC(C)C)C[C@@H](O)[C@H](Cc2ccccc2)NC(=O)[C@H](C(C)C)N2CCN(Cc3csc(C)n3)C2=O)cc1 | 1520 nM | 312 nM
13 | Cc1nc(CN2CCN([C@H](C(=O)N[C@@H](Cc3ccccc3)[C@H](O)CN(CC(C)C)S(=O)(=O)c3ccc(C=O)cc3)C(C)C)C2=O)cs1 | 206 nM | 51 nM
14 | Cc1nc(CN2CCN([C@H](C(=O)N[C@@H](Cc3ccccc3)[C@H](O)CN(CC(C)C)S(=O)(=O)c3ccc(C(=O)O)cc3)C(C)C)C2=O)cs1 | 9440 nM | 10000 nM
15 | CC(=O)c1ccc(S(=O)(=O)N(CC(C)C)C[C@@H](O)[C@H](Cc2ccccc2)NC(=O)[C@H](C(C)C)N2CCN(Cc3csc(C)n3)C2=O)cc1 | 680 nM | 39 nM
16 | Cc1nc(CN2CCN([C@H](C(=O)N[C@@H](Cc3ccccc3)[C@H](O)CN(CC(C)C)S(=O)(=O)c3ccc(NC=O)cc3)C(C)C)C2=O)cs1 | 2410 nM | 168 nM
17 | C=Cc1ccc(S(=O)(=O)N(CC(C)C)C[C@@H](O)[C@H](Cc2ccccc2)NC(=O)[C@H](C(C)C)N2CCN(Cc3csc(C)n3)C2=O)cc1 | 957 nM | 101 nM
18 | Cc1cccc(C)c1OCC(=O)N[C@@H](Cc1ccccc1)[C@@H](O)C[C@H](Cc1ccccc1)NC(=O)[C@H](C(C)C)N1CCCNC1=O [LOPINAVIR] | 1240 nM | 
19 | CC(C)c1nc(CN(C)C(=O)N[C@H](C(=O)N[C@@H](Cc2ccccc2)C[C@H](O)[C@H](Cc2ccccc2)NC(=O)OCc2cncs2)C(C)C)cs1 [RITONAVIR] | 3440 nM | 
